The source of these data is patent US10988459B2 (priority 2015, dated 2021).

This test deals with human RIP1 kinase domain (2-375) (Homo sapiens (Human), UniProt Q13546). The test can be described thus: biochemical. Format: biochemical. The following applies: tight-binding apparent inhibition constant; human RIP1 kinase domain (2-375) 50 nM, 50 uM ATP, 2 hours; read-out: Ki. The method in brief: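 50 nM purified kinase domain from baculovirus-infected insect cells, incubated 2 h with compound in 50 mM Hepes pH 7.5, 30 mM MgCl2, 1 mM DTT, 50 uM ATP, 0.002% Brij-35, 0.5% DMSO. ADP formation read by Transcreener FP at 633 nm excitation. Ki^app fitted with the Morrison tight-binding equation.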
Sequence of human RIP1 kinase domain (2-375) (Q13546 2-375): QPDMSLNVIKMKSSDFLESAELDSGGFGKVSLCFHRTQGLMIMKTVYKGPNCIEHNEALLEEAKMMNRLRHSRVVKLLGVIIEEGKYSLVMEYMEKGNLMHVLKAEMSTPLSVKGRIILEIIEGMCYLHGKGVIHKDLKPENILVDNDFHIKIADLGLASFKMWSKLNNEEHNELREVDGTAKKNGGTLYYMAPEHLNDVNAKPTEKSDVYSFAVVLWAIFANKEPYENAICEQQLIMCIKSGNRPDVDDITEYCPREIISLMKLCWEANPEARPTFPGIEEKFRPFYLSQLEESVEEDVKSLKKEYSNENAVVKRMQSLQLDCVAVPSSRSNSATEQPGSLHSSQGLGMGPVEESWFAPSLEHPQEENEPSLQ

As to `Cn1cc(C2CCCc3nc(C(=O)N[C@H]4CCc5cc(F)cc(F)c5NC4=O)nn32)cn1` (stereo partly drawn) [Example 433, N—((S)-7,9-difluoro-2-oxo-2,3,4,5-tetrahydro-1H-benzo[b]azepin-3-yl)-5-(1-methyl-1H-pyrazol-4-yl)-5,6,7,8-tetrahydro-[1,2,4]triazolo[1,5-a]pyridine-2-carboxamide], the Ki was 143 nM. The result for `CN1C(=O)[C@@H](NC(=O)c2nc3c(-c4ccccc4)nccn3n2)COc2ccccc21` [Example 442, (S)—N-(5-methyl-4-oxo-2,3,4,5-tetrahydrobenzo[b][1,4]oxazepin-3-yl)-8-phenyl-[1,2,4]triazolo[1,5-a]pyrazine-2-carboxamide] reads 7.83 nM; that for `CN1C(=O)C(NC(=O)c2ncn(Cc3ccccc3)n2)CCn2nc(CN3CCOCC3)cc21` (stereo not drawn) [Example 443, 1-benzyl-N-(4-methyl-2-(morpholinomethyl)-5-oxo-5,6,7,8-tetrahydro-4H-pyrazolo[1,5-a][1,3]diazepin-6-yl)-1H-1,2,4-triazole-3-carboxamide], 299 nM; that for `CN1C(=O)[C@@H](NC(=O)c2nc3n(n2)CCNC3c2ccccc2)COc2ccccc21` (stereo partly drawn) [Example 452, N—((S)-5-methyl-4-oxo-2,3,4,5-tetrahydrobenzo[b][1,4]oxazepin-3-yl)-8-phenyl-5,6,7,8-tetrahydro-[1,2,4]triazolo[1,5-a]pyrazine-2-carboxamide], 206 nM. The figure for `CN1C(=O)[C@@H](NC(=O)c2nnc(Cc3ccccc3)[nH]2)CCn2nc3c(c21)CS(=O)(=O)C3` [Example 453, (S)-5-Benzyl-N-(1-methyl-9,9-dioxido-2-oxo-1,2,3,4,5,10-hexahydro-8H-thieno[3′,4′:3,4]pyrazolo[1,5-a][1,3]diazepin-3-yl)-4H-1,2,4-triazole-3-carboxamide] is 301 nM; for `CN1C(=O)C(NC(=O)c2ncn(Cc3ccccc3)n2)CCn2nc(C3CCC3)cc21` (stereo not drawn) [Example 454, 1-Benzyl-N-(2-cyclobutyl-4-methyl-5-oxo-5,6,7,8-tetrahydro-4H-pyrazolo[1,5-a][13]diazepin-6-yl)-1H-1,2,4-triazole-3-carboxamide] it is 46 nM. The result for `CC(C)c1cc2n(n1)CCC(NC(=O)c1ncn(Cc3ccccc3)n1)C(=O)N2C` (stereo not drawn) [Example 455, 1-Benzyl-N-(2-isopropyl-4-methyl-5-oxo-5,6,7,8-tetrahydro-4H-pyrazol[1,5-a][1,3]diazepin-6-yl)-1H-1,2,4-triazole-3-carboxamide] reads 60 nM; that for `CN1C(=O)C(NC(=O)c2ncn(Cc3ccccc3)n2)CCn2nc(CC3CC3)cc21` (stereo not drawn) [Example 456, 1-Benzyl-N-(2-(cyclopropylmethyl)-4-methyl-5-oxo-5,6,7,8-tetrahydro-4H-pyrazol[1,5-a][1,3]diazepin-6-yl)-1H-1,2,4-triazole-3-carboxamide], 51 nM; that for `CC(C)c1cc2n(n1)CC[C@H](NC(=O)c1ncn(Cc3ccccc3)n1)C(=O)N2C` [Example 458, (S)-1-Benzyl-N-(2-isopropyl-4-methyl-5-oxo-5,6,7,8-tetrahydro-4H-pyrazolo[1,5-a][1,3]diazepin-6-yl)-1H-1,2,4-triazole-3-carboxamide], 10 nM. For `CN1C(=O)[C@@H](NC(=O)c2ncn(Cc3ccccc3)n2)CCn2nc(CC3CC3)cc21` [Example 459, (S)-1-benzyl-N-(2-(cyclopropylmethyl)-4-methyl-5-oxo-5,6,7,8-tetrahydro-4H-pyrazolo[1,5-a][1,3]diazepin-6-yl)-1H-1,2,4-triazole-3-carboxamide], the Ki stood at 7 nM. The figure for `CCc1cc2n(n1)CCC(NC(=O)c1ncn(Cc3ccccc3)n1)C(=O)N2C` (stereo not drawn) [Example 460, 1-Benzyl-N-(2-ethyl-4-methyl-5-oxo-5,6,7,8-tetrahydro-4H-pyrazolo[1,5-a][1,3]diazepin-6-yl)-1H-1,2,4-triazole-3-carboxamide] is 41 nM.

For `CC(C)Oc1cc2n(n1)CCC(NC(=O)c1ncn(Cc3ccccc3)n1)C(=O)N2C` (stereo not drawn) [Example 461, 1-Benzyl-N-(2-isopropoxy-4-methyl-5-oxo-5,6,7,8-tetrahydro-4H-pyrazolo[1,5-a][1,3]diazepin-6-yl)-1H-1,2,4-triazole-3-carboxamide], the Ki worked out at 50 nM. The figure for `Cc1nc(C(=O)N[C@H]2CCn3nccc3N(C)C2=O)nn1Cc1ccccc1` [Example 462, (S)-1-Benzyl-5-methyl-N-(4-methyl-5-oxo-5,6,7,8-tetrahydro-4H-pyrazolo[1,5-a][1,3]diazepin-6-yl)-1H-1,2,4-triazole-3-carboxamide] is 33 nM; for `CCc1cc2n(n1)CCC(NC(=O)c1ncn(Cc3ccccc3F)n1)C(=O)N2C` (stereo not drawn) [Example 463, N-(2-Ethyl-4-methyl-5-oxo-5,6,7,8-tetrahydro-4H-pyrazolo[1,5-a][1,3]diazepin-6-yl)-1-(2-fluorobenzyl)-1H-1,2,4-triazole-3-carboxamide] it is 45 nM. The figure for `CCc1cc2n(n1)CC[C@H](NC(=O)c1ncn(Cc3ccccc3F)n1)C(=O)N2C` [Example 464, (S)—N-(2-ethyl-4-methyl-5-oxo-5,6,7,8-tetrahydro-4H-pyrazolo[1,5-a][1,3]diazepin-6-yl)-1-(2-fluorobenzyl)-1H-1,2,4-triazole-3-carboxamide] is 14 nM.

As for `CN1C(=O)[C@@H](NC(=O)c2nc3n(n2)[C@@H](c2ccccc2F)CC3)CCn2nccc21` [Example 465, (R)-5-(2-fluorophenyl)-N—((S)-4-methyl-5-oxo-5,6,7,8-tetrahydro-4H-pyrazolo[1,5-a][1,3]diazepin-6-yl)-6,7-dihydro-5H-pyrrolo[1,2-b][1,2,4]triazole-2-carboxamide], the Ki was 9 nM.

Consider `CN1C(=O)[C@@H](NC(=O)c2nc3n(n2)[C@H](c2ccccc2F)CC3)CCn2nccc21` [Example 466, (S)-5-(2-fluorophenyl)-N—((S)-4-methyl-5-oxo-5,6,7,8-tetrahydro-4H-pyrazolo[1,5-a][1,3]diazepin-6-yl)-6,7-dihydro-5H-pyrrolo[1,2-b][1,2,4]triazole-2-carboxamide], for which the Ki is 803 nM. As for `CN1C(=O)[C@@H](NC(=O)c2nc3n(n2)[C@H](c2ccccc2F)CC3)COc2ccccc21` [Example 467, (S)-5-(2-fluorophenyl)-N—((S)-5-methyl-4-oxo-2,3,4,5-tetrahydrobenzo[b][1,4]oxazepin-3-yl)-6,7-dihydro-5H-pyrrolo[1,2-b][1,2,4]triazole-2-carboxamide], the Ki is 57 nM.

Regarding `CN1C(=O)[C@@H](NC(=O)c2nc3n(n2)[C@@H](c2ccccc2F)CC3)COc2ccccc21` [Example 468, (R)-5-(2-fluorophenyl)-N—((S)-5-methyl-4-oxo-2,3,4,5-tetrahydrobenzo[b][1,4]oxazepin-3-yl)-6,7-dihydro-5H-pyrrolo[1,2-b][1,2,4]triazole-2-carboxamide], the Ki is 4 nM.

Regarding `CN1C(=O)[C@@H](NC(=O)c2ncc3n2CC(CC(F)(F)F)CC3)COc2ccccc21` (stereo partly drawn) [Example 469, N-[(3S)-5-methyl-4-oxo-2,3-dihydro-1,5-benzoxazepin-3-yl]-6-(2,2,2-trifluoroethyl)-5,6,7,8-tetrahydroimidazo[1,5-a]pyridine-3-carboxamide], the Ki turned out to be 1000 nM. In the case of `CN1C(=O)[C@@H](NC(=O)c2ncn(CC3CCCO3)n2)CCn2nc(C3CC3)cc21` (stereo partly drawn) [Example 470], the Ki was 2400 nM. The figure for `Cc1cc2n(n1)CC[C@H](NC(=O)c1ncn(Cc3cccc(Cl)c3Cl)n1)C(=O)N2C` [Example 472, 1-[(2,3-dichlorophenyl)methyl]-N-(6S)-2,4-dimethyl-5-oxo-7,8-dihydro-6H-pyrazolo[1,5-a][1,3]diazepin-6-yl-1,2,4-triazole-3-carboxamide] is 5.1 nM; for `Cc1cc2n(n1)CC[C@H](NC(=O)c1ncn(Cc3ccc(Cl)cc3Cl)n1)C(=O)N2C` [Example 473, 1-[(2,4-dichlorophenyl)methyl]-N-[(6S)-2,4-dimethyl-5-oxo-7,8-dihydro-6H-pyrazolo[1,5-a][1,3]diazepin-6-yl]-1,2,4-triazole-3-carboxamide] it is 7.8 nM; for `Cc1cc2n(n1)CC[C@H](NC(=O)c1ncn(CC3CCCO3)n1)C(=O)N2C` (stereo partly drawn) [Example 474, N-(6S)-2,4-dimethyl-5-oxo-7,8-dihydro-6H-pyrazolo[1,5-a][1,3]diazepin-6-yl-1-(tetrahydrofuran-2-ylmethyl)-1,2,4-triazole-3-carboxamide] it is 1300 nM. The figure for `Cc1cc2n(n1)CC[C@H](NC(=O)c1ncn(CC3CCCOC3)n1)C(=O)N2C` (stereo partly drawn) [Example 475, N-(6S)-2,4-dimethyl-5-oxo-7,8-dihydro-6H-pyrazolo[1,5-a][1,3]diazepin-6-yl-1-(tetrahydropyran-3-ylmethyl)-1,2,4-triazole-3-carboxamide] is 360 nM. The figure for `Cc1cc2n(n1)CC[C@H](NC(=O)c1ncn(CC3CCCCO3)n1)C(=O)N2C` (stereo partly drawn) [Example 476, N-(6S)-2,4-dimethyl-5-oxo-7,8-dihydro-6H-pyrazolo[1,5-a][1,3]diazepin-6-yl-1-(tetrahydropyran-2-ylmethyl)-1,2,4-triazole-3-carboxamide] is 310 nM; for `CN1C(=O)[C@@H](NC(=O)c2ncn(CC3CCCCO3)n2)CCn2nc(C3CC3)cc21` (stereo partly drawn) [Example 477] it is 290 nM. For the molecule `CN1C(=O)[C@@H](NC(=O)c2ncn(CC3CCCOC3)n2)CCn2nc(C3CC3)cc21` (stereo partly drawn) [Example 478], the Ki stood at 290 nM. As to `Cc1cc2n(n1)CC[C@H](NC(=O)c1ncn(CC3CCOC3)n1)C(=O)N2C` (stereo partly drawn) [Example 479, N-(6S)-2,4-dimethyl-5-oxo-7,8-dihydro-6H-pyrazolo[1,5-a][1,3]diazepin-6-yl-1-(tetrahydrofuran-3-ylmethyl)-1,2,4-triazole-3-carboxamide], the Ki came out at 2800 nM. The figure for `CN1C(=O)[C@@H](NC(=O)c2ncn(CC3CCOC3)n2)CCn2nc(C3CC3)cc21` (stereo partly drawn) [Example 480] is 2600 nM.
